{"source": "ChEMBL document CHEMBL1201862", "about": "“PubChem BioAssay data set” (2004)", "key": {"[1]": {"target": "DNA dC->dU-editing enzyme APOBEC-3G (Homo sapiens, UniProt Q9HC16)", "sequence (Q9HC16 whole entry)": "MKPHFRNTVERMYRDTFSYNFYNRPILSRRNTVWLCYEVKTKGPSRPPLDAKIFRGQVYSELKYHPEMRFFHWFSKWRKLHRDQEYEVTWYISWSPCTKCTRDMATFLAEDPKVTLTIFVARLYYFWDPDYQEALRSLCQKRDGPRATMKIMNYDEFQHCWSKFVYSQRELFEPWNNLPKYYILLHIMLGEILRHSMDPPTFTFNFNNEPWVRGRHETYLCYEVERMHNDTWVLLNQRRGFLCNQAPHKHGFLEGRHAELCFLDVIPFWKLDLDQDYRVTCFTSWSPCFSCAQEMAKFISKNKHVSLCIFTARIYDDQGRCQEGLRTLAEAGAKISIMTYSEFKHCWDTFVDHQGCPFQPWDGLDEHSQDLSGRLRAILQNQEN", "experiment": "Dose Response confirmation of small molecule APOBEC3G DNA Deaminase Inhibitors via a fluorescence-based single-stranded DNA deaminase assay. [Related pubchem assays (depositor defined):AID493012, AID493028]", "type": "functional"}, "[2]": {"target": "T1, Alkaline phosphatase, tissue-nonspecific isozyme (Homo sapiens, UniProt P05186)", "T1 sequence (P05186 whole entry)": "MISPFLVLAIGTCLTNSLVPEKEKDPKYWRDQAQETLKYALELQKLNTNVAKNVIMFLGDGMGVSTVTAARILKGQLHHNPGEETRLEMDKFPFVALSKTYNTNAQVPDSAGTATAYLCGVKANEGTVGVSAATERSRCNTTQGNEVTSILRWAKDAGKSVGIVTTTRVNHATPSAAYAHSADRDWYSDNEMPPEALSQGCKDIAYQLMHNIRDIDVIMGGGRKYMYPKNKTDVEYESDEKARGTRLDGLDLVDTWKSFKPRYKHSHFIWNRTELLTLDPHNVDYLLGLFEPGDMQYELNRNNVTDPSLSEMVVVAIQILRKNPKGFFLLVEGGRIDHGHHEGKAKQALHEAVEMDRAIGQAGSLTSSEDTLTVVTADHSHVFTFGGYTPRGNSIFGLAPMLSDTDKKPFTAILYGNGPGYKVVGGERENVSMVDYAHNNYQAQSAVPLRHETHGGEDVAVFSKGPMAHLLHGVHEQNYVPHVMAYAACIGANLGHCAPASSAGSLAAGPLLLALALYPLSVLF", "experiment": "TNAP enzyme inhibition by screening hits, dose response, selectivity assay for mouse IAP inhibitor project, biochemical, human TNAP, uHTS hits (AID 488906)", "type": "functional"}, "[3]": {"target": "T2, Dual specificity protein phosphatase 6 (Rattus norvegicus, UniProt Q64346)", "T2 sequence (Q64346 whole entry)": "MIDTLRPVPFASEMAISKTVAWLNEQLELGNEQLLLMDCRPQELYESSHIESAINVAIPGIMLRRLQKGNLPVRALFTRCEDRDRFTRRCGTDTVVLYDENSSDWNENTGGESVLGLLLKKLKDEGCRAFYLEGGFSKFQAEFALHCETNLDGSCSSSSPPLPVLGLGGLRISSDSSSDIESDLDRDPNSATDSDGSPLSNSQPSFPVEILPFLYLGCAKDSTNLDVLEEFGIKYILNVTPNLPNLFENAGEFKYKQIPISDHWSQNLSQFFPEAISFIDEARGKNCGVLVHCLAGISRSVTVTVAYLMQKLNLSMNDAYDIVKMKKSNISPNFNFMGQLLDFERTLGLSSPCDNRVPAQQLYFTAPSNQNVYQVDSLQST", "experiment": "MKP-3 phosphatase inhibitors, primary screen, biochemical, rat enzyme, in vitro (AID 425)"}, "Bcl-2-related protein A1": {"target": "T3, Bcl-2-related protein A1 (Mus musculus, UniProt Q07440)", "T3 sequence (Q07440 whole entry)": "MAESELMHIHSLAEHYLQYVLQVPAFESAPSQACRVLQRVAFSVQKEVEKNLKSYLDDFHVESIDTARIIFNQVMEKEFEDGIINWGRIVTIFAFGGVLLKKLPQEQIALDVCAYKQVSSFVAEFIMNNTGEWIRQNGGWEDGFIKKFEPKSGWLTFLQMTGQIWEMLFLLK", "type": "functional"}, "[4]": {"target": "T4, Ubiquitin-conjugating enzyme E2 N (Homo sapiens, UniProt P61088)", "T4 sequence (P61088 whole entry)": "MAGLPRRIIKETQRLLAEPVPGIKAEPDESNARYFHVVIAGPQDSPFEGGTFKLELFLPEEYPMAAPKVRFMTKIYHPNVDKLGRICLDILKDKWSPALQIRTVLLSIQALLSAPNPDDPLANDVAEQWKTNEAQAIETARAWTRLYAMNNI", "type": "functional"}, "[5]": {"target": "Ribosomal protein S6 kinase alpha-3 (Homo sapiens, UniProt P51812)", "sequence (P51812 whole entry)": "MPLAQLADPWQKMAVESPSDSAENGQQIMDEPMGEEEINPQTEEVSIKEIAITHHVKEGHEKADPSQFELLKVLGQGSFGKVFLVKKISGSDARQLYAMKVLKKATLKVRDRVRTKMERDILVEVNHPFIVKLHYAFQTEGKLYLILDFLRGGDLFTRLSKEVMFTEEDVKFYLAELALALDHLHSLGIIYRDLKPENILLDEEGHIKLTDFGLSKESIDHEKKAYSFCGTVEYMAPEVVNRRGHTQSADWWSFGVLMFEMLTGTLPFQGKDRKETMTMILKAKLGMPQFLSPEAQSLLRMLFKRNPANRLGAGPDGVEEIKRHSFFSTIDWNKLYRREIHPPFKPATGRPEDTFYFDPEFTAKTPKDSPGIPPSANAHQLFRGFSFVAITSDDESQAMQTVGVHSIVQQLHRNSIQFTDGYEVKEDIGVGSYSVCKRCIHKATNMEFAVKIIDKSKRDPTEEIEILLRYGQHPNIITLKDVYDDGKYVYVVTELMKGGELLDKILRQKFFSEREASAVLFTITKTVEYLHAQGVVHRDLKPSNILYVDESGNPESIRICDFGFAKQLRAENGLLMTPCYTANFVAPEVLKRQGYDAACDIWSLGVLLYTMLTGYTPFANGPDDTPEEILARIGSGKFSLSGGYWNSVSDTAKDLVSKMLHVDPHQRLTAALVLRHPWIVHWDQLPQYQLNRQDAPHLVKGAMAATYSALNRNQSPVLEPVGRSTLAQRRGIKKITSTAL", "type": "functional"}, "BJ": {"system": "BJ", "experiment": "cytotoxicity toward BJ-TERT fibroblasts, dose response, cell-based, RAS-independent, luminescence (AID 1933)", "type": "functional", "conditions": "Homo sapiens"}, "Aminopeptidase N": {"target": "T5, Aminopeptidase N (Plasmodium falciparum FcB1/Columbia, UniProt O96935)", "T5 sequence (O96935 whole entry)": "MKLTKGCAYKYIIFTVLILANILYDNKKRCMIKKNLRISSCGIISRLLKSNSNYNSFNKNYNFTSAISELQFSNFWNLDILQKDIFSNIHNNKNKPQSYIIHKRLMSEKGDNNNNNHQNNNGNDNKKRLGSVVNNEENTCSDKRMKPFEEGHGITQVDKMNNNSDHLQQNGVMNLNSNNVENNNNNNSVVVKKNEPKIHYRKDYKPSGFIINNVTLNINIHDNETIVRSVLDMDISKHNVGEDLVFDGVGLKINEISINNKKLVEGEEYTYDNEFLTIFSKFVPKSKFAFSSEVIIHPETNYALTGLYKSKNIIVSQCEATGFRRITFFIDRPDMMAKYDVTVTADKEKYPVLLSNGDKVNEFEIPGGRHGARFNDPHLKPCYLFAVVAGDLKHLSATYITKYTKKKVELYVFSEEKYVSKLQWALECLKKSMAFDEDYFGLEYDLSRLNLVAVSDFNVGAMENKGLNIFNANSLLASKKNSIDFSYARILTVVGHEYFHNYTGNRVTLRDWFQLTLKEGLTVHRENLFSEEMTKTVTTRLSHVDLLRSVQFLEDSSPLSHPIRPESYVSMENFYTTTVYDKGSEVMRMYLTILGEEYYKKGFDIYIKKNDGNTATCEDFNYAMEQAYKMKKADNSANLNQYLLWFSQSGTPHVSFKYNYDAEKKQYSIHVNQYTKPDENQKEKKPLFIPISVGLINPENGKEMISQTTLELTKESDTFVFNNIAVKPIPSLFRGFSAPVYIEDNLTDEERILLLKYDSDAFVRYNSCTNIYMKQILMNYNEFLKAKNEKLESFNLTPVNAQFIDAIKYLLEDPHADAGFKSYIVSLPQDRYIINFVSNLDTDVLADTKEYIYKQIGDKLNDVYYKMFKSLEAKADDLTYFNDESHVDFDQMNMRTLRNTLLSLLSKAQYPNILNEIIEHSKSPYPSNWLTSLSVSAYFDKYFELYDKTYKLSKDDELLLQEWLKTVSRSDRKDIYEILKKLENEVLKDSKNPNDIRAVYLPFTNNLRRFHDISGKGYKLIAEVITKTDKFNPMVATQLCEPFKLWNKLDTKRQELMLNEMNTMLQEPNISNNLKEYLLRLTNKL", "experiment": "P. falciparum M1AAP inhibitors, biochemical, fluorogenic H-Leu-NHMec substrate, 1536-well (AID 1445)", "set-up": "species or system Plasmodium falciparum 3D7, 3D7"}, "[6]": {"target": "MAP kinase-activated protein kinase 5 (Homo sapiens, UniProt Q8IW41)", "sequence (Q8IW41 whole entry)": "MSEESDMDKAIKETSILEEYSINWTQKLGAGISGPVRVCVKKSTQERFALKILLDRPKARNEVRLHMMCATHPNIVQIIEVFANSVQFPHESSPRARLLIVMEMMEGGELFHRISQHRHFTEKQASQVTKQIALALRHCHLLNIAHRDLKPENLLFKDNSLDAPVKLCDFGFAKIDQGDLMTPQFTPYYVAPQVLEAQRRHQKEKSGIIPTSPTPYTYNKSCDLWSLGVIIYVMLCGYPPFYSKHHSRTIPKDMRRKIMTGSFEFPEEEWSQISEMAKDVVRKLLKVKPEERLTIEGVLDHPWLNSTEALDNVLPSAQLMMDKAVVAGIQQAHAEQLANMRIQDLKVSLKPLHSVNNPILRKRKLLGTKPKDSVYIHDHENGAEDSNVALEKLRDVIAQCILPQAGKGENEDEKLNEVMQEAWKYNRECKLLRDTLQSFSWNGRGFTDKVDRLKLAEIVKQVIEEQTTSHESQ", "type": "functional"}, "[7]": {"target": "Protein-tyrosine kinase 2-beta (Homo sapiens, UniProt Q14289)", "sequence (Q14289 whole entry)": "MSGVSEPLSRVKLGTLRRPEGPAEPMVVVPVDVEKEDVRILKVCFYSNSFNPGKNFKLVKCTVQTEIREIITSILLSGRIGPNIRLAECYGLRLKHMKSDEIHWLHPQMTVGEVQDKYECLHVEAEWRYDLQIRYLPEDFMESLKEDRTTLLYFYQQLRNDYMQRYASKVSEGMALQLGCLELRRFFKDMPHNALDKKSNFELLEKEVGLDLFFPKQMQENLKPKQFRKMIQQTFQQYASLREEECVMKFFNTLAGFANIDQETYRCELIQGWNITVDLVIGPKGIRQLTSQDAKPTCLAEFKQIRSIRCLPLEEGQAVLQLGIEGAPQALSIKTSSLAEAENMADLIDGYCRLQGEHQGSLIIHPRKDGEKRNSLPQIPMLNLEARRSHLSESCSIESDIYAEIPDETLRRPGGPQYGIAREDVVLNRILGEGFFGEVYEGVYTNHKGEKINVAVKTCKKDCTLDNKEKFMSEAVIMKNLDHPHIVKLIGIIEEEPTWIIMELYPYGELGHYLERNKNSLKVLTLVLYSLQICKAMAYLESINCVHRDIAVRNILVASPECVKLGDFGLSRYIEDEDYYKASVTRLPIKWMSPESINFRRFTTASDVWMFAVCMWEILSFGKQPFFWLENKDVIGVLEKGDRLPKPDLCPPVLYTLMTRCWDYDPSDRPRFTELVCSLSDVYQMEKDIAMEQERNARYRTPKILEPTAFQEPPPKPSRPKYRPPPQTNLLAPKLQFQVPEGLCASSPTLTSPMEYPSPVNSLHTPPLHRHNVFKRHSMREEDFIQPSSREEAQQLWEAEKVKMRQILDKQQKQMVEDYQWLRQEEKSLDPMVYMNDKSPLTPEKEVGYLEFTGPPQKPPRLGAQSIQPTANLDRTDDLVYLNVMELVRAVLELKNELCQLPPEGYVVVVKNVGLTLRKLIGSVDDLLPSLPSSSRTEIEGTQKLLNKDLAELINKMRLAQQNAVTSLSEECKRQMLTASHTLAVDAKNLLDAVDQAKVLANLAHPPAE", "type": "functional"}, "[8]": {"target": "Homeodomain-interacting protein kinase 4 (Homo sapiens, UniProt Q8NE63)", "sequence (Q8NE63 whole entry)": "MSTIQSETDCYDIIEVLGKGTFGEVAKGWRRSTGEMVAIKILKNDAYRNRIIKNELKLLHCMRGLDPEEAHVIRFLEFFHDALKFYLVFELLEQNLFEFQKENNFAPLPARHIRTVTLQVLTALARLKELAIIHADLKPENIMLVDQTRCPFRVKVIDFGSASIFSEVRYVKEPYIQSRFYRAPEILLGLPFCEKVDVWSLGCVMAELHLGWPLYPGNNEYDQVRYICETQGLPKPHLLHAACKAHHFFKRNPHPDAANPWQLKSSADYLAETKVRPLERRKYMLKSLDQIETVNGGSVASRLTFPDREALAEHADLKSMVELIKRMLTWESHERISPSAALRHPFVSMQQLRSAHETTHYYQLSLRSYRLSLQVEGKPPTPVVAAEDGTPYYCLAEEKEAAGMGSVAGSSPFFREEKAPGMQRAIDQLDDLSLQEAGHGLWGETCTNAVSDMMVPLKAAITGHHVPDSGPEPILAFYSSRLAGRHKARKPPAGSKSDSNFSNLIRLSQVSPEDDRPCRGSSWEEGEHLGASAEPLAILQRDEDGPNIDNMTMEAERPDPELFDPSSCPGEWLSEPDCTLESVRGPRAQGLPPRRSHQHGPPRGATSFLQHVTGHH", "type": "functional"}, "[9]": {"target": "Tyrosine-protein kinase receptor UFO (Homo sapiens, UniProt P30530)", "sequence (P30530 whole entry)": "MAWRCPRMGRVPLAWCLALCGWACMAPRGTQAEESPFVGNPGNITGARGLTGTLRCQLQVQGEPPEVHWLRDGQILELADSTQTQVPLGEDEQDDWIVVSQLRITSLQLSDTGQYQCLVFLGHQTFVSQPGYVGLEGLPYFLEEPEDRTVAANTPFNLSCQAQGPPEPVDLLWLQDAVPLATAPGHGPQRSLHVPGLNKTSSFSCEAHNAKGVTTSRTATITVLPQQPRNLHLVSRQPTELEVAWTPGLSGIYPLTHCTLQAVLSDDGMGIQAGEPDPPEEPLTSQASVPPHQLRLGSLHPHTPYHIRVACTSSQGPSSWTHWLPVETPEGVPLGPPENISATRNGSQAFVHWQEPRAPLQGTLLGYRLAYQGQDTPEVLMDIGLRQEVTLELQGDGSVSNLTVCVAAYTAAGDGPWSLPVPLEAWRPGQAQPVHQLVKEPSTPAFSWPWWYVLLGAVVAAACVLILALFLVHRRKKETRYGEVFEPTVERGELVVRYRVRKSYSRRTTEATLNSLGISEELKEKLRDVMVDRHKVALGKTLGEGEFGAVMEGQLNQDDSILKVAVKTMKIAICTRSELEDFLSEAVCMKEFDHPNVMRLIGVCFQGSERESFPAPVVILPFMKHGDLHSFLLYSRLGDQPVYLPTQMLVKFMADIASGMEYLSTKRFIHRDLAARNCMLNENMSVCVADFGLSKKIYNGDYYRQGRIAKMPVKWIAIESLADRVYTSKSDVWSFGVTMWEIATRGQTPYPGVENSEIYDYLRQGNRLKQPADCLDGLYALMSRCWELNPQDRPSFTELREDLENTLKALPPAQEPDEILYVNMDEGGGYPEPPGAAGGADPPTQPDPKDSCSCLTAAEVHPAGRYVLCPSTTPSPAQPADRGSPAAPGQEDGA", "type": "functional"}}, "note": "Active and inactive are the calls of the source."}
{"smiles": "O=C1/C(=C\\c2cccc(O)c2O)SC(=S)N1Cc1ccccc1", "values": [{"measurement": "IC50", "setting": "[1]", "value": "47200 nM (active)"}, {"measurement": "IC50", "setting": "[2]", "value": "> 100000 nM (inactive)"}]}
{"smiles": "COc1cccc2c1NC(C(=O)O)C1CC=CC21", "note": "(configuration not stated)", "values": [{"measurement": "IC50", "setting": "[3]", "value": "> 10000 nM (not active)"}, {"measurement": "IC50", "setting": "Bcl-2-related protein A1", "value": "1100 nM (active)"}, {"measurement": "IC50", "setting": "[4]", "value": "19100 nM (active)"}]}
{"smiles": "COc1c(-c2nc3ccccc3[nH]2)c(O)cc2oc(C)cc(=O)c12", "values": [{"measurement": "Ki", "setting": "[5]", "value": "794 nM (active)"}]}
{"smiles": "CCc1ccc(S(=O)(=O)/N=C2\\C=C(Nc3ccc(O)cc3)C(=O)c3ccccc32)cc1", "values": [{"measurement": "EC50", "setting": "BJ", "value": "1510 nM (active)"}]}
{"smiles": "Cc1cc([N+](=O)[O-])cc(/C=N\\NC(=O)C2COc3ccccc3O2)c1O", "note": "(configuration not stated)", "values": [{"measurement": "IC50", "setting": "Aminopeptidase N", "value": "3050 nM (active)"}]}
{"smiles": "Cc1ccc(F)c(NC(=O)Nc2ccc(-c3cccc4[nH]nc(N)c34)cc2)c1", "note": "[LINIFANIB]", "values": [{"measurement": "Ki", "setting": "[6]", "value": "> 1580 nM (inactive)"}, {"measurement": "Ki", "setting": "[7]", "value": "> 1580 nM (inactive)"}, {"measurement": "Ki", "setting": "[8]", "value": "39.8 nM (active)"}, {"measurement": "Ki", "setting": "[9]", "value": "126 nM (active)"}]}
